IC50 data for twelve molecules are collected here from US11104674B2 (Hoffmann-La Roche Inc., priority 2016, dated 2021).

By IC50 is commonly meant the point on the concentration scale where inhibition reaches its midpoint. A lower IC50 goes with inhibition by little substance.

The test system of this assay is HBsAg. Nature of the assay: HBsAg assay (chemiluminescence immunoassay of secreted HBsAg). In kind it is cell-based, HBV. Conditions: Hepatitis B virus, HepG2.2.15, HBsAg secretion, HepG2.2.15 cells, CLIA of culture supernatant. An outline of the steps:
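HepG2.2.15 cells, in duplicate, treated with three-fold serial compound dilutions (1% DMSO final); secreted HBsAg in supernatant quantified by chemiluminescence immunoassay; IC50 is the concentration reducing HBsAg secretion by 50% versus the DMSO control.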
Regarding `CC1c2cnc(-c3ncccn3)nc2CCN1c1cc(F)cc(N(C)CCCCC(N)=O)n1` (stereo not drawn) [Example 142, 5-[[4-fluoro-6-(5-methyl-2-pyrimidin-2-yl-7,8-dihydro-5H-pyrido[4,3-d]pyrimidin-6-yl)-2-pyridyl]-methyl-amino]pentanamide], half-maximal inhibition (IC50) was put at 25 nM.
Under `CC1c2cnc(-c3ncccn3)nc2CCN1c1cc(N(CCCCC(N)=O)CC2CC2)cc(F)n1` (stereo not drawn) [Example 143, 5-[Cyclopropylmethyl-[2-fluoro-6-(5-methyl-2-pyrimidin-2-yl-7,8-dihydro-5H-pyrido[4,3-d]pyrimidin-6-yl)-4-pyridyl]amino]pentanamide] stands 176 nM.
Under `CC1c2cnc(-c3ncccn3)nc2CCN1c1cc(N2CC(C#N)C2)cc(F)n1` (stereo not drawn) [Example 144, 1-[2-Fluoro-6-(5-methyl-2-pyrimidin-2-yl-7,8-dihydro-5H-pyrido[4,3-d]pyrimidin-6-yl)-4-pyridyl]azetidine-3-carbonitrile] stands 28 nM.
To `CC1c2cnc(-c3ncccn3)nc2CCN1c1cc(N2CC(C(=O)O)CC2=O)cc(F)n1` (stereo not drawn) [Example 145, 1-[2-Fluoro-6-(5-methyl-2-pyrimidin-2-yl-7,8-dihydro-5H-pyrido[4,3-d]pyrimidin-6-yl)-4-pyridyl]-5-oxo-pyrrolidine-3-carboxylic acid] belongs 5340 nM; to `CC1c2cnc(-c3ncccn3)nc2CCN1c1cc(N2CCS(=O)(=O)CC2)cc(F)n1` (stereo not drawn) [Example 146, 4-[2-Fluoro-6-(5-methyl-2-pyrimidin-2-yl-7,8-dihydro-5H-pyrido[4,3-d]pyrimidin-6-yl)-4-pyridyl]-1,4-thiazinane1,1-dioxide], 38 nM.
`CC1c2cnc(-c3ncccn3)nc2CCN1c1cc(F)nc(N2CCC2)c1` (stereo not drawn) [Example 147, 6-[2-(Azetidin-1-yl)-6-fluoro-4-pyridyl]-5-methyl-2-pyrimidin-2-yl-7,8-dihydro-5H-pyrido[4,3-d]pyrimidine] gave an IC50 of 18 nM. Against the preceding molecule, the IC50 is about 2.1-fold lower.
As to `COC1CN(c2cc(N3CCc4nc(-c5ncccn5)ncc4C3C)cc(F)n2)C1` (stereo not drawn) [Example 148, 6-[2-Fluoro-6-(3-methoxyazetidin-1-yl)-4-pyridyl]-5-methyl-2-pyrimidin-2-yl-7,8-dihydro-5H-pyrido[4,3-d]pyrimidine], the IC50 was determined as 21 nM.
To `CC1c2cnc(-c3ncccn3)nc2CCN1c1cc(F)nc(N2CC(F)(F)C2)c1` (stereo not drawn) [Example 149, 6-[2-(3,3-Difluoroazetidin-1-yl)-6-fluoro-4-pyridyl]-5-methyl-2-pyrimidin-2-yl-7,8-dihydro-5H-pyrido[4,3-d]pyrimidine] belongs 20 nM.
`CC1c2cnc(-c3ncccn3)nc2CCN1c1cc(F)nc(N2CC(F)C2)c1` (stereo not drawn) [Example 150, 6-[2-Fluoro-6-(3-fluoroazetidin-1-yl)-4-pyridyl]-5-methyl-2-pyrimidin-2-yl-7,8-dihydro-5H-pyrido[4,3-d]pyrimidine] registered an IC50 of 20 nM.
`CC1c2cnc(-c3ncccn3)nc2CCN1c1cc(N2CC3(COC3)CC2=O)cc(F)n1` (stereo not drawn) [Example 151, 7-[2-Fluoro-6-(5-methyl-2-pyrimidin-2-yl-7,8-dihydro-5H-pyrido[4,3-d]pyrimidin-6-yl)-4-pyridyl]-2-oxa-7-azaspiro[3.4]octan-6-one] had an IC50 of 27 nM.
Under `CC1CCN(c2cc(F)nc(N3CCc4nc(-c5ncccn5)ncc4C3C)c2)C1=O` (stereo not drawn) [Example 152, 1-[2-Fluoro-6-(5-methyl-2-pyrimidin-2-yl-7,8-dihydro-5H-pyrido[4,3-d]pyrimidin-6-yl)-4-pyridyl]-3-methyl-pyrrolidin-2-one] stands 3 nM.
The molecule `CC1c2cnc(-c3ncccn3)nc2CCN1c1cc(N2CC(CO)CC2=O)cc(F)n1` (stereo not drawn) [Example 153, 1-[2-Fluoro-6-(5-methyl-2-pyrimidin-2-yl-7,8-dihydro-5H-pyrido[4,3-d]pyrimidin-6-yl)-4-pyridyl]-4-(hydroxymethyl)pyrrolidin-2-one] came in with an IC50 of 32 nM.
